Reference: patent publication US7977045B2, “Aqueous-based pharmaceutical composition” (Aventis Pharmaceuticals Inc., priority 1996, dated 2011)

Assay: Positron emission tomography of nasal deposition and retention of TAA after spraying the composition
Format: in vivo, human
Method: A dose of the composition can be delivered to a human patient by spraying the composition into each of the patient's nasal cavities. For dose delivery, the pre-compression metering pump (Valois VP7/100S) is placed in a patient's nostril and is then actuated by the patient, resulting in a spray into the nasal cavity. After initial priming, each actuation of the pump delivers from the nasal actuator about 100 mg of composition containing about 55 mcg of TAA. Each bottle of composition will provide at least about 120 metered doses. For the exemplified compositions, the recommended once-daily dosing for adults and children 12 years and older begins at about 220 mcgs of TAA, equivalent to two sprays in each nostril.
A composition comprising the formulation of Examples 1 and 2 was administered to two volunteer patients. Post administration, the patients were evaluated by positron emission tomography in order to determine 1) the amount of time it took for the maximum dose of the TAA medicament to be delivered to various regions of interest within the nasal cavity, and 2) the amount of TAA medicament deposited on the regions of interest over a two hour time period. For purposes of the evaluation, the volume of the head region was segmented into 104 distinct regions of interest. […] The results of evaluation indicate a rapid distribution of the TAA medicament to the target regions of the nose.
The evaluation included also a determination of the percentage of the TAA medicament remaining on the target sites two hours after the it was administered to each of the patients. This percentage was determined by dividing the amount remaining in each region of interest by the total amount remaining in the 104 regions of interest.

[1] = first volunteer, at maximum concha contact
[2] = first volunteer, over a two-hour period
[3] = first volunteer, two hours post administration, share of total remaining in 104 regions
[4] = other (second) volunteer, post dose
[5] = second volunteer, two hours post administration

Which “dose directly deposited on the target sites (frontal cavity, frontal sinus, maxillary sinuses, superior and inferior concha)” value (both volunteers, amount in region divided by total amount remaining in the 104 regions of interest, two hours) does the source give for `CC1(C)O[C@@H]2C[C@H]3[C@@H]4CCC5=CC(=O)C=C[C@]5(C)[C@@]4(F)[C@@H](O)C[C@]3(C)[C@]2(C(=O)CO)O1` [TAA, triamcinolone acetonide] here?
Its value is “greater than 85%”.

And the “maximum amount of TAA medicament in contact with the frontal cavity region” value (first volunteer)?
Its value is “about 41%”.

And the “maximum amount of the dose deposited into the frontal sinus” value (first volunteer)?
The value was “approximately 3.5%”.

And the “maximum amount of the dose deposited into the maxillary sinuses” value (first volunteer)?
The value was ~3.9%.

And the “time to clearance of TAA medicament from the frontal sinus” value (first volunteer)?
The value was ≤ 1 h.

What about the “amount of total dose in contact with the inferior concha” value [1] of the same compound?
The value was “About 46%”.

And the “amount of total dose in contact with the superior concha” value [1]?
Its value is “about 19%”.

And the “amount of total dose remaining in the concha tissues (constant value)” value (first volunteer, final time period)?
The value was 3.4-4%.

What about the “maximum amount of TAA medicament in contact with the concha regions, % of total dose delivered to the nose” value (first volunteer, intranasal spray of formulation of Examples 1 and 2, PET) of the same compound?
Its value is “about 65%”.

What about the “dose deposited in the maxillary sinus region” value [2] of the same compound?
Its value is “about 3%”.

And the “dose deposited on the frontal sinus” value [2]?
The value was “about 1.2%”.

What about the “time of maximum amount in contact with the concha regions” value (first volunteer, post dose) of the same compound?
Its value is “about 45 seconds”.

What about the “time of maximum amount in contact with the frontal cavity region” value (first volunteer, post dose) of the same compound?
The value was “about 45 seconds”.

What about the “time of maximum deposit in the frontal and maxillary sinuses” value (first volunteer, post dose) of the same compound?
Its value is ≤ 30 s.

And the “medicament still present in the maxillary sinuses” value (first volunteer, two hour acquisition sampling time)?
Its value is “approximately 1%”.

What about the “total TAA medicament remaining deposited in the frontal cavity” value (first volunteer, two hours after administration, share of total remaining in 104 regions) of the same compound?
Its value is “about 47.9%”.

What about the “amount remaining in the concha region (inferior plus superior)” value (first volunteer, two hours post administration) of the same compound?
The value was “about 36.4%”.

What about the “total medicament deposited in the inferior concha region” value [3] of the same compound?
The value was “about 27.8%”.

What about the “total medicament deposited in the superior concha region” value [3] of the same compound?
The value was “about 8.6%”.

What about the “amount in the frontal cavity region (constant level)” value (first volunteer, two hours post-dose) of the same compound?
The value was “about 12%”.

What about the “sum of percentages remaining on the target sites (dose deposited directly onto target tissues)” value (first volunteer, two-hour serial sampling period) of the same compound?
Its value is “about 88.5%”.

And the “maximum amount deposited in the frontal sinus” value (other (second) volunteer)?
Its value is “around 3.5%”.

And the “maximum amount deposited in the maxillary sinus” value (other (second) volunteer)?
Its value is “about 2%”.

What about the “maximum amount of TAA medicament in contact with the frontal cavity, % of total dose delivered to the nose” value (other (second) volunteer) of the same compound?
Its value is “about 55%”.

What about the “part of the maximum concha amount associated with the inferior concha” value (other (second) volunteer) of the same compound?
The value was “about 75%”.

And the “part of the maximum concha amount associated with the superior concha” value (other (second) volunteer)?
The value was “about 25%”.

What about the “administered dose still in contact with the concha regions” value (other (second) volunteer, about two hours post-administration) of the same compound?
The value was 6-8%.

What about the “dose still resident in the frontal/nasal cavity” value (other (second) volunteer, after two hours) of the same compound?
The value was “approximately 22%”.

And the “maximum amount of the drug in contact with the concha regions, % of total dose delivered to the nose” value (other (second) volunteer, intranasal spray of formulation of Examples 1 and 2, PET)?
The value was “about 53%”.

And the “time of maximum amount in contact with the frontal cavity” value [4]?
The value was ≤ 30 s.

What about the “time of maximum amount in contact with the inferior concha region” value [4] of the same compound?
The value was “about 3.5 minutes”.

What about the “time of maximum amount in contact with the superior concha region” value [4] of the same compound?
Its value is “about 25 seconds”.

What about the “time of maximum deposit in the maxillary and frontal sinuses” value [4] of the same compound?
The value was ≤ 30 s.

And the “sum of percentages remaining on the target sites (dose deposited directly onto target tissues)” value (second volunteer, two hour serial sampling period)?
Its value is “about 85.6%”.

And the “dose in the frontal sinus” value [5]?
Its value is “about 1.6%”.

What about the “dose in the maxillary sinus” value [5] of the same compound?
Its value is “about 1.4%”.

And the “dose remaining deposited on the inferior concha” value [5]?
Its value is “About 23.5%”.

What about the “dose remaining deposited on the superior concha” value [5] of the same compound?
Its value is “about 6.9%”.

What about the “total percentage of the dose remaining deposited on the concha region” value [5] of the same compound?
Its value is “about 30.4%”.

What about the “dose remaining deposited in the frontal cavity” value (second volunteer, two hours post-drug administration, share of total remaining in 104 regions) of the same compound?
The value was “about 52.2%”.
